Counter-ions that a name gives are not always drawn. The source made the active and inactive calls.
Tests used:
[1] = biological target: T1, Probable ATP-dependent RNA helicase DDX6 (Homo sapiens, UniProt P26196)
T1 sequence (P26196 whole entry): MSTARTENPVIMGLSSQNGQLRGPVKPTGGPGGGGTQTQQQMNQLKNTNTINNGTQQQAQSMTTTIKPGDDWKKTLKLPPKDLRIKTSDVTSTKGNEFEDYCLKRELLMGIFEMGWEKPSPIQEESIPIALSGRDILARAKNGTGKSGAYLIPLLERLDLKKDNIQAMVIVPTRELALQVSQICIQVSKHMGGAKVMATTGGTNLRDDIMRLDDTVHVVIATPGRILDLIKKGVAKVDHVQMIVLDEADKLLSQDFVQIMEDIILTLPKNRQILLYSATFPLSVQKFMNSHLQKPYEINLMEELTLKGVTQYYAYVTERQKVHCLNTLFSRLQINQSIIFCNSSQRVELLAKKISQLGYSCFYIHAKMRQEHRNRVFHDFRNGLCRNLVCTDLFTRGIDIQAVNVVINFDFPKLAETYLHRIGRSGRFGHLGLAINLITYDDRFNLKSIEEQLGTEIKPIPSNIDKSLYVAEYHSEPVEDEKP

[2] = biological target: Eukaryotic translation initiation factor 2-alpha kinase 1 (Homo sapiens, UniProt Q9BQI3)
[3] = biological target: Activated CDC42 kinase 1 (Homo sapiens, UniProt Q07912)
[4] = biological target: T2, Acyl-CoA dehydrogenase family member 11 (Homo sapiens, UniProt Q709F0)
T2 sequence (Q709F0 whole entry): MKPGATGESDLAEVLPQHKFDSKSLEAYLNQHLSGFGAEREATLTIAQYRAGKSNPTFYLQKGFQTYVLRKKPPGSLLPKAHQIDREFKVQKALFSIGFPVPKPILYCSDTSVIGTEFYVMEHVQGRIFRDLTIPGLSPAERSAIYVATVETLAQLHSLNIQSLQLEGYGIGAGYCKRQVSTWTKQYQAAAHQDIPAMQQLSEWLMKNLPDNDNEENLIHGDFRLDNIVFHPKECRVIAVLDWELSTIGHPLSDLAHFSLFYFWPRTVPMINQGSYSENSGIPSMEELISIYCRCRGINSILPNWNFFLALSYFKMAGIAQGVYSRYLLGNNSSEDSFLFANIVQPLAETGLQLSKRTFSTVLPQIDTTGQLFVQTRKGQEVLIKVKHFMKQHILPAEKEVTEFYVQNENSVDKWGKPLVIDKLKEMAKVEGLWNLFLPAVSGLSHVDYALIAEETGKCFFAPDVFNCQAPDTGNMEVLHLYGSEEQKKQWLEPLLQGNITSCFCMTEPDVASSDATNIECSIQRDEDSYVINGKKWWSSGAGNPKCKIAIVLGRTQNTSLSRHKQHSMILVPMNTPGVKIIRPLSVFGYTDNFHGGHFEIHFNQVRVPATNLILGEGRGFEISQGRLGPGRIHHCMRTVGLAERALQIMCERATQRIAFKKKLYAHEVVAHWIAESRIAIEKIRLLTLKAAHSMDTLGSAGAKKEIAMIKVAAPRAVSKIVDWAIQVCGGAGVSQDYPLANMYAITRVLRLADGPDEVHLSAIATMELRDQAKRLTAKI

[5] = biological target: T3, Serine/threonine-protein kinase NLK (Homo sapiens, UniProt Q9UBE8)
T3 sequence (Q9UBE8 whole entry): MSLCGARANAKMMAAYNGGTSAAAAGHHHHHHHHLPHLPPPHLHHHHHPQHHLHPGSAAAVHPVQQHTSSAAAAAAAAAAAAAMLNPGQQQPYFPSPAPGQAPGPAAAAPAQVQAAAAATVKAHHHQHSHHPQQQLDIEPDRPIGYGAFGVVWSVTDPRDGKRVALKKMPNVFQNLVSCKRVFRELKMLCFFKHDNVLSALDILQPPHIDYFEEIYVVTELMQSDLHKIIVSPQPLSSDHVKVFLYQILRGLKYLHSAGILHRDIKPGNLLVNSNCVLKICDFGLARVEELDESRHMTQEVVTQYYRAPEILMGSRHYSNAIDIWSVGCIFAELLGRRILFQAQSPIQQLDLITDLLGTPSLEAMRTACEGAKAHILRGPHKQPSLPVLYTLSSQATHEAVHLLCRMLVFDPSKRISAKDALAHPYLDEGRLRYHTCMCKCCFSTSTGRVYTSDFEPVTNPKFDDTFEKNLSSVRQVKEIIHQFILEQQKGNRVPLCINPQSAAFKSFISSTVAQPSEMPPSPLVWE

[6] = biological target: Cyclin-dependent kinase 4 (Homo sapiens, UniProt P11802)
[7] = biological target: Protein-tyrosine kinase 2-beta (Homo sapiens, UniProt Q14289)
[8] = biological target: Serine/threonine-protein kinase pim-1 (Homo sapiens, UniProt P11309)
Further: in the data inactive means no Kd found up to 30 µM.

Sequence of Protein-tyrosine kinase 2-beta (Q14289 whole entry): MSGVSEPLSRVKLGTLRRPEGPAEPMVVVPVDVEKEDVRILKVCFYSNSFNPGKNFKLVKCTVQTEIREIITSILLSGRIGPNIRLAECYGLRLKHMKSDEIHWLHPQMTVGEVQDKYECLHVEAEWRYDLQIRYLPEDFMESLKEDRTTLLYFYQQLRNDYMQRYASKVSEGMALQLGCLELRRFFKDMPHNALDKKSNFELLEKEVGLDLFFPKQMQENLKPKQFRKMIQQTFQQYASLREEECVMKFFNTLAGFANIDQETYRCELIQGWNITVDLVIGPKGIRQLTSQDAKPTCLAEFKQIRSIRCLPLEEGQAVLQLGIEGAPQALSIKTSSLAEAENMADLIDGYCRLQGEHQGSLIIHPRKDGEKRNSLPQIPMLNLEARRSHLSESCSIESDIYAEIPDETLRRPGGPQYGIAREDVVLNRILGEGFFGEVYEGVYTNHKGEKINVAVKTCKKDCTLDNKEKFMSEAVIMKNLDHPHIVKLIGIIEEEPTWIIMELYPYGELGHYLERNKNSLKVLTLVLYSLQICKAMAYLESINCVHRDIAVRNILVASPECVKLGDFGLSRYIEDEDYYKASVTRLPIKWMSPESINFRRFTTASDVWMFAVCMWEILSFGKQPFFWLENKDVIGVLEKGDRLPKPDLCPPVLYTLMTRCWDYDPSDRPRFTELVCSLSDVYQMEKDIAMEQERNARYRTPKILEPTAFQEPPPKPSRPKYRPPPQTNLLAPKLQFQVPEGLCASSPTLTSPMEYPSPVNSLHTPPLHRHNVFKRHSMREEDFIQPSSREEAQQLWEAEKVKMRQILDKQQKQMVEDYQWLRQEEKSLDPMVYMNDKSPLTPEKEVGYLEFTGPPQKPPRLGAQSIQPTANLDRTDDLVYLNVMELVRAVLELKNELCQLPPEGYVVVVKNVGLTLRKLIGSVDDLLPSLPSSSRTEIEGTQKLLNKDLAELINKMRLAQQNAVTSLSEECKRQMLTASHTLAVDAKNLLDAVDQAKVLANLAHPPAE
Sequence of Eukaryotic translation initiation factor 2-alpha kinase 1 (Q9BQI3 whole entry): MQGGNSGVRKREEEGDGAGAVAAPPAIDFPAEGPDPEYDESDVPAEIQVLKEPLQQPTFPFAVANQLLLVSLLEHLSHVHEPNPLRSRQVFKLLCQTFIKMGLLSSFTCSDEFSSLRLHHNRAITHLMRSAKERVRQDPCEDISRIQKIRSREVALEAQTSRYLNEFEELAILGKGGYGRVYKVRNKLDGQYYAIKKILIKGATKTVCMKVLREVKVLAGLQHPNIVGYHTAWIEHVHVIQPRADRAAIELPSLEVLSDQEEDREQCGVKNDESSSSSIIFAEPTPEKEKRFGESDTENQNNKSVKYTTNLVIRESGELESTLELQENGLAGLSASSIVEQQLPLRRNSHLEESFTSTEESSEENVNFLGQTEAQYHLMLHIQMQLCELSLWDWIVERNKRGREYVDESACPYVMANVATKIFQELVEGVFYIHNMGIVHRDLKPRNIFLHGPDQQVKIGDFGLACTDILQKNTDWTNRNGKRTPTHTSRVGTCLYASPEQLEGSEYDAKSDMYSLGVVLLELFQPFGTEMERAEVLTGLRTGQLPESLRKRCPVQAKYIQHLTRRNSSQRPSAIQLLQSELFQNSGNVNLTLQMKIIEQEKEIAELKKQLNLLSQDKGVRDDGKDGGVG
Sequence of Cyclin-dependent kinase 4 (P11802 whole entry): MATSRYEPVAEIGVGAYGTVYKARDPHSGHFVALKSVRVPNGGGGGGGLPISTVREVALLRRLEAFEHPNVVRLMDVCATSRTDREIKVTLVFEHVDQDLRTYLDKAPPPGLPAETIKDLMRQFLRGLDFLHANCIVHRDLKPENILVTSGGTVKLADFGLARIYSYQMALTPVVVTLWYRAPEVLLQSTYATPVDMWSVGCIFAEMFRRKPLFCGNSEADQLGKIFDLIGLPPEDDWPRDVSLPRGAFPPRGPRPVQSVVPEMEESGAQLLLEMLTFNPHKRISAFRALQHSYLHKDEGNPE
Sequence of Activated CDC42 kinase 1 (Q07912 whole entry): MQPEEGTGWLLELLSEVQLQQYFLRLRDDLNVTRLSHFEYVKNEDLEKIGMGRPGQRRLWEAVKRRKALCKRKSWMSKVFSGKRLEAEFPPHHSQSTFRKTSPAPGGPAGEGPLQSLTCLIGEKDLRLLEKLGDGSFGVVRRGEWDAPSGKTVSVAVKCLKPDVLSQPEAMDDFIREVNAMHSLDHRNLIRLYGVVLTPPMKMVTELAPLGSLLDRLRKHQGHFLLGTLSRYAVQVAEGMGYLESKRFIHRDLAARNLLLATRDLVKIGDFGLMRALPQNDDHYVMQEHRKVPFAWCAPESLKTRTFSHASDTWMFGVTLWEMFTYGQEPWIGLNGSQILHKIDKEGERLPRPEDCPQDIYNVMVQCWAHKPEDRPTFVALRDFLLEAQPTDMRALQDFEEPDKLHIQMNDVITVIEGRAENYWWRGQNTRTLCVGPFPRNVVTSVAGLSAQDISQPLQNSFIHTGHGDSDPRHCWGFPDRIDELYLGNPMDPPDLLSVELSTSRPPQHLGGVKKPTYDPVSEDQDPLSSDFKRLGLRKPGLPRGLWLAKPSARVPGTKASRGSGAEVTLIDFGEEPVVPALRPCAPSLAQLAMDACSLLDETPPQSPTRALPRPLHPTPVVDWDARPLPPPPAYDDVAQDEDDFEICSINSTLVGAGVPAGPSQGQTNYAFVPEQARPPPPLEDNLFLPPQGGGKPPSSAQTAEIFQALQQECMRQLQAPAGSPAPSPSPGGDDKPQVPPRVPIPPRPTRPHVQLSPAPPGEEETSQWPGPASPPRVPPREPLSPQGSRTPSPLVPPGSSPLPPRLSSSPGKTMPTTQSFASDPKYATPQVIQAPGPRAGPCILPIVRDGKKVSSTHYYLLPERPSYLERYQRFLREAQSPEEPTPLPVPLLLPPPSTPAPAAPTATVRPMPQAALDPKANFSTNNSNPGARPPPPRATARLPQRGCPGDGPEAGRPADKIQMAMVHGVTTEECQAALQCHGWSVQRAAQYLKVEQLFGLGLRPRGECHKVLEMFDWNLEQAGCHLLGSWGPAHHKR
Sequence of Serine/threonine-protein kinase pim-1 (P11309 whole entry): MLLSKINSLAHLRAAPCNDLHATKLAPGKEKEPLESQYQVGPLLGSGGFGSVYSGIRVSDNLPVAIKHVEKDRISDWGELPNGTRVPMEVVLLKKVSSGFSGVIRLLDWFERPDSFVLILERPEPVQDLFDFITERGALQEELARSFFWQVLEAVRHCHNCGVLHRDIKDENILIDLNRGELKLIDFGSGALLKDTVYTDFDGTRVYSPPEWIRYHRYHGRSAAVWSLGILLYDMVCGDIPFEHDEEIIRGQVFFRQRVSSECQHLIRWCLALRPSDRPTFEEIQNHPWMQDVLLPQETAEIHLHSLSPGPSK

Row | Structure (SMILES) | Kd [1] | Kd [2] | Kd [3] | Kd [4] | Kd [5] | Kd [6] | Kd [7] | Kd [8]
1 | C[C@H]1CNCCCN1S(=O)(=O)c1cccc2cncc(F)c12 | > 30 µM (inactive) | > 30 µM (inactive) | > 30 µM (inactive) | > 30 µM (inactive) | > 30 µM (inactive) | > 30 µM (inactive) | > 30 µM (inactive) | > 30 µM (inactive)
2 | CCNC(=O)C#Cc1ccc2c(c1)NC(=O)/C2=C(\Nc1ccc(CN(C)C)cc1)c1ccccc1 | > 30 µM (inactive) | > 30 µM (inactive) | 1.55 µM (active) | > 30 µM (inactive) | > 30 µM (inactive) | > 30 µM (inactive) | > 30 µM (inactive) | > 30 µM (inactive)
3 | C=CC(=O)N1CCC[C@H](n2c(=O)n(-c3ccc(Oc4ccccc4)cc3)c3c(N)ncnc32)C1 | > 30 µM (inactive) | > 30 µM (inactive) | > 30 µM (inactive) | > 30 µM (inactive) | > 30 µM (inactive) | > 30 µM (inactive) | > 30 µM (inactive) | > 30 µM (inactive)
4 | COCc1c(-c2ccc(NC(=O)Nc3cc(C(F)(F)F)ccc3F)c(F)c2)c2c(N)ncnn2c1CN1CCOCC1 | > 30 µM (inactive) | > 30 µM (inactive) | > 30 µM (inactive) | > 30 µM (inactive) | > 30 µM (inactive) | > 30 µM (inactive) | > 30 µM (inactive) | > 30 µM (inactive)
5 | Cc1csc(-c2nnc(Nc3ccc(Oc4ncccc4-c4ccnc(N)n4)cc3)c3ccccc23)c1 [AMG-900] | > 30 µM (inactive) | > 30 µM (inactive) | > 30 µM (inactive) | > 30 µM (inactive) | > 30 µM (inactive) | > 30 µM (inactive) | > 30 µM (inactive) | > 30 µM (inactive)
6 | NC(=O)Nc1cc(-c2cccc(F)c2)sc1C(=O)N[C@H]1CCCNC1 [AZD-7762] | > 30 µM (inactive) | > 30 µM (inactive) | 1.09 µM (active) | > 30 µM (inactive) | > 30 µM (inactive) | > 30 µM (inactive) | 0.608 µM (active) | > 30 µM (inactive)
7 | Cn1cnc2c(F)c(Nc3ccc(Br)cc3F)c(C(=O)NOCCO)cc21 [BINIMETINIB] | > 30 µM (inactive) | > 30 µM (inactive) | > 30 µM (inactive) | > 30 µM (inactive) | > 30 µM (inactive) | > 30 µM (inactive) | > 30 µM (inactive) | > 30 µM (inactive)
8 | COCC(=O)NC/C=C/c1ccc2ncnc(Nc3ccc(Oc4ccc(C)nc4)c(C)c3)c2c1 [CP-724714] | > 30 µM (inactive) | > 30 µM (inactive) | > 30 µM (inactive) | > 30 µM (inactive) | > 30 µM (inactive) | > 30 µM (inactive) | > 30 µM (inactive) | > 30 µM (inactive)
9 | C#Cc1cccc(Nc2ncnc3cc(OC)c(OCCCCCCC(=O)NO)cc23)c1 [CUDC-101] | > 30 µM (inactive) | > 30 µM (inactive) | > 30 µM (inactive) | > 30 µM (inactive) | > 30 µM (inactive) | > 30 µM (inactive) | > 30 µM (inactive) | > 30 µM (inactive)
10 | O=C(Nc1nc2cccc(-c3ccc(CN4CCS(=O)(=O)CC4)cc3)n2n1)C1CC1 [FILGOTINIB] | > 30 µM (inactive) | > 30 µM (inactive) | > 30 µM (inactive) | > 30 µM (inactive) | > 30 µM (inactive) | > 30 µM (inactive) | > 30 µM (inactive) | > 30 µM (inactive)

Further lines, results first:

Row | Kd [1] | Kd [2] | Kd [3] | Kd [4] | Kd [5] | Kd [6] | Kd [7] | Kd [8] | Structure (SMILES)
11 | > 30 µM (inactive) | > 30 µM (inactive) | > 30 µM (inactive) | > 30 µM (inactive) | 0.449 µM (active) | > 30 µM (inactive) | > 30 µM (inactive) | > 30 µM (inactive) | Cc1nc2cc(-c3nn(C(C)C)c4ncnc(N)c34)ccc2o1
12 | > 30 µM (inactive) | > 30 µM (inactive) | > 30 µM (inactive) | > 30 µM (inactive) |  | > 30 µM (inactive) | > 30 µM (inactive) | > 30 µM (inactive) | Cc1nc(NC(=O)N2CCC[C@H]2C(N)=O)sc1-c1ccnc(C(C)(C)C(F)(F)F)c1 [ALPELISIB]
13 | > 30 µM (inactive) | > 30 µM (inactive) | > 30 µM (inactive) | > 30 µM (inactive) | > 30 µM (inactive) | 1.29 µM (active) | > 30 µM (inactive) | > 30 µM (inactive) | O=C(Nc1c[nH]nc1-c1nc2cc(CN3CCOCC3)ccc2[nH]1)NC1CC1 [AT-9283]
14 | > 30 µM (inactive) | 1.82 µM | > 30 µM (inactive) | > 30 µM (inactive) | > 30 µM (inactive) | > 30 µM (inactive) | > 30 µM (inactive) | > 30 µM (inactive) | Cc1cc(C(=O)NOCCO)c(Nc2ccc(I)cc2F)n(C)c1=O [AZD-8330]
15 | > 30 µM (inactive) | > 30 µM (inactive) | > 30 µM (inactive) | > 30 µM (inactive) | > 30 µM (inactive) | > 30 µM (inactive) | > 30 µM (inactive) | > 30 µM (inactive) | CCn1c(C(=O)N(C2CC2)C2CC2)cc2c3c(ncn3C)c(Nc3cc(C)n(C)n3)nc21 [BMS-911543]
16 | > 30 µM (inactive) | > 30 µM (inactive) | > 30 µM (inactive) | > 30 µM (inactive) | > 30 µM (inactive) | > 30 µM (inactive) | > 30 µM (inactive) | > 30 µM (inactive) | COc1cc2ncnc(Oc3cccc(NC(=O)Nc4cc(C(C)(C)C(F)(F)F)on4)c3)c2cc1OC [CEP-32496]
17 | > 30 µM (inactive) | > 30 µM (inactive) | 0.929 µM (active) | > 30 µM (inactive) | > 30 µM (inactive) | > 30 µM (inactive) | 18.4 µM (active) | > 30 µM (inactive) | Cc1cc(Nc2ncc(Cl)c(Nc3ccccc3S(=O)(=O)C(C)C)n2)c(OC(C)C)cc1C1CCNCC1 [CERITINIB]
18 | > 30 µM (inactive) | > 30 µM (inactive) | > 30 µM (inactive) | > 30 µM (inactive) | > 30 µM (inactive) | > 30 µM (inactive) | > 30 µM (inactive) | > 30 µM (inactive) | COc1c(OCCCN2CCOCC2)ccc2c1N=C(NC(=O)c1cnc(N)nc1)N1CCN=C21 [COPANLISIB]
19 | > 30 µM (inactive) | 3.72 µM | > 30 µM (inactive) | > 30 µM (inactive) | > 30 µM (inactive) | > 30 µM (inactive) | > 30 µM (inactive) | > 30 µM (inactive) | CCS(=O)(=O)N1CCN(c2ccc(Nc3ncc(C(N)=O)c(NC4CC4)n3)cc2)CC1 [Cerdulatinib Hydrochloride]
20 | > 30 µM (inactive) | > 30 µM (inactive) | > 30 µM (inactive) | > 30 µM (inactive) | > 30 µM (inactive) | > 30 µM (inactive) | > 30 µM (inactive) | > 30 µM (inactive) | Cc1cccc(-c2nn3c(c2-c2ccnc4ccc(C(N)=O)cc24)CCC3)n1 [GALUNISERTIB]
21 | > 30 µM (inactive) |  | 0.076 µM (active) | > 30 µM (inactive) | > 30 µM (inactive) | > 30 µM (inactive) | 0.118 µM (active) | > 30 µM (inactive) | CC(C)c1cc(CNc2nc(Nc3cc(C4CC4)[nH]n3)cc(N3CCN(C)CC3)n2)on1 [XL-228]

Reference: ChEMBL document CHEMBL3991601, “The target landscape of clinical kinase drugs” (Science, 2017)
